Source: patent publication US7973047B2, “Beta-Secretase modulators and methods of use” (Amgen Inc., priority 2010, dated 2011)
Read-outs that look alike come from different tables or passages of the source.

Assays:
BACE = BACE (Homo sapiens, UniProt P56817); test: In vitro enzymatic BACE FRET (fluorescence resonance energy transfer) assay; format: biochemical; settings: BACE enzyme 0.2 nM, FRET substrate 50 nM, acetate buffer pH 4.2
Method: In Vitro Enzymatic BACE FRET (Fluorescence Resonance Energy Transfer) Assay
Assay buffer is 0.05 M acetate, pH 4.2, 10% DMSO final, 100 uM genapol (which is a nonionic detergent, below it's Critical Micelle Concentration). Enzyme (0.2 nM) is pre-incubated for one hour with inhibitors added in 1 uL of DMSO. Then the assay is started by the addition of FRET substrate (50 nM) and incubated for one hour. The FRET assay is terminated with by addition of Tris buffer, which raises the pH to neutrality, and the fluorescence is determined. The FRET substrate is a peptide with commercially available fluorophore and quencher, on opposite sides of the BACE cleavage site. Proteolytic cleavage of the FRET substrate releases quenching of fluorescence (excitation 488 nm and emission […]).

[1] = test system: Aβ40 in conditioned medium of cells stably expressing Amyloid Precursor Protein (APP); test: BACE cell-based assay: Aβ40 in conditioned medium by sandwich ELISA
Procedure, shortened: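 APP-stable cells grown 24 h in DMEM/10% FBS, then exposed to compounds for 24 h in a 10-point dose series starting at 100 or 10 μM, 0.1% DMSO final. Medium Aβ40 measured by pAb40/biotinylated 6E10 sandwich ELISA with Europium time-resolved fluorescence; IC50 from percent inhibition.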

[2] = cells stably expressing APP, 24 h incubation with compound, Aβ40 in supernatant by sandwich ELISA, read-out: IC50 values in the cell-based assay (inhibition or reduction of Aβ40)
[3] = cell based assay data, Table 4, unit inferred, read-out: Cell Assay
[4] = cell based assay data of Table 4, unit inferred, read-out: Cell Assay

Chain of BACE (P56817 46-501, species assumed): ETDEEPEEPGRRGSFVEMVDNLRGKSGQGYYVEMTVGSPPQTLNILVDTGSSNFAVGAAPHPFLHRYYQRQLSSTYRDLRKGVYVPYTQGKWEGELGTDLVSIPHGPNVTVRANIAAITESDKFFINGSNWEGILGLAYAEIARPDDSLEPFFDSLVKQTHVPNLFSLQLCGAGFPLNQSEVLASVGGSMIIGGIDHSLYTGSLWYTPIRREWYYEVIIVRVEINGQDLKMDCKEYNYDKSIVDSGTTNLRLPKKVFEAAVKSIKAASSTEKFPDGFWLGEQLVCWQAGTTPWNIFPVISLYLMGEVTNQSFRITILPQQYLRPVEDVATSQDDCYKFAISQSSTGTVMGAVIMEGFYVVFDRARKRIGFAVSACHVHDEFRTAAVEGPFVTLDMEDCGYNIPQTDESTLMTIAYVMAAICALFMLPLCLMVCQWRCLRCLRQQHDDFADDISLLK

SMILES | IC50 (BACE) [nM] | IC50 [1, 3] [nM] | further results
CC(=O)N[C@@H](Cc1ccccc1)[C@H](O)CN[C@H]1CC2(CCC2)Oc2ccc(N3C[C@@H]4C[C@H]3CO4)cc21 [Example 388] | ≤ 5000 |  | IC50 [1, 2]: ≤ 5000 nM
CC(=O)N[C@@H](Cc1ccccc1)[C@H](O)CN[C@H]1CC2(CCC2)Oc2ccc(N3CCCC3)cc21 [Example 264] | ≤ 5000 |  | 
C=CC[C@H](NC(C)=O)[C@H](O)CN[C@H]1CC2(CCC2)Oc2ncc(CC(C)(C)C)cc21 [Example 736, N-((1S)-1-((1R)-2-(((4′S)-6′-(2,2-dimethylpropyl)-3′,4′-dihydrospiro[cyclobutane-1,2′-pyrano[2,3-b]pyridin]-4′-yl)amino)-1-hydroxyethyl)-3-buten-1-yl)acetamide] | ≤ 5000 | 34 | 
CC(=O)N[C@@H](Cc1ccccc1)[C@H](O)CN[C@H]1CC2(CCC2)Oc2ccc(N3CCOC[C@@H]3C)cc21 [Example 139] | ≤ 5000 |  | IC50 [1, 2]: ≤ 5000 nM
CC(=O)N[C@@H](Cc1cccc(F)c1)[C@H](O)CN[C@H]1CC2(CCC2)Oc2c1cc(CC(C)(C)C)nc2OC(C)C [Example 610, N-((1S,2R)-3-(((4′S)-6′-(2,2-dimethylpropyl)-8′-((1-methylethyl)oxy)-3′,4′-dihydrospiro[cyclobutane-1,2′-pyrano[2,3-c]pyridin]-4′-yl)amino)-1-((3-fluorophenyl)methyl)-2-hydroxypropyl)acetamide] | ≤ 5000 |  | IC50 [1, 4]: 17.2 nM
CC(=O)N[C@@H](Cc1cccc(Cl)c1)[C@H](O)CN[C@H]1CC(C)(C)Oc2ccc(Br)cc21 [Example 182] | ≤ 5000 |  | 
CC(=O)N[C@@H](Cc1ccccc1)[C@H](O)CN[C@H]1CC2(CCC2)Oc2ncc(CC(F)(F)F)cc21 [Example 512, N-((1S,2R)-2-hydroxy-1-(phenylmethyl)-3-(((4′S)-6′-(2,2,2-trifluoroethyl)-3′,4′-dihydrospiro[cyclobutane-1,2′-pyrano[2,3-b]pyridin]-4′-yl)amino)propyl)acetamide] | ≤ 5000 |  | IC50 [1, 2]: ≤ 5000 nM
CNc1nc(CC(C)(C)C)cc2c1OC(C)(C)C[C@@H]2NC[C@@H](O)[C@H](Cc1ccc(F)c(F)c1)NC(C)=O [compound 760] |  | 11.3 | 
CC(=O)N[C@@H](Cc1cc(F)cc(F)c1)[C@H](O)CN[C@H]1CC2(CCCC2)Oc2ncc(CC(C)(C)C)cc21 [compound 548] |  |  | IC50 [1, 4]: 2.83 nM
COCC(=O)N[C@@H](Cc1cccc(Cl)c1)[C@H](O)CN[C@H]1CC(C)(C)Oc2ccc(Br)cc21 [Example 180] | ≤ 5000 |  | 
CC(=O)N[C@@H](Cc1cc(F)cc(F)c1)[C@H](O)CN[C@H]1CC(C)(C)Oc2ncc(CC(C)(C)C)cc21 [compound 573] |  |  | IC50 [1, 4]: 3.12 nM
CC(=O)N[C@@H](Cc1cccc(F)c1)[C@H](O)CN[C@H]1CC(C)(C)Oc2ncc(CC(C)(C)C)cc21 [compound 546] |  |  | IC50 [1, 4]: 1.67 nM
CC(=O)N[C@@H](Cc1ccc(F)cc1)[C@H](O)CN[C@H]1CC2(CCC2)Oc2c1cc(CC(C)(C)C)nc2NC(C)C [compound 585] |  |  | IC50 [1, 4]: 22.3 nM

Second part, led by results:

IC50 (BACE) [nM] | IC50 [1, 3] [nM] | SMILES | further results
 | 5.14 | CC(=O)N[C@@H](Cc1cc(F)cc(NC2CCOCC2)c1)[C@H](O)CN[C@H]1CC2(CCC2)Oc2ncc(CC(C)(C)C)cc21 [compound 805] | 
 | 6.26 | CC(=O)N[C@@H](Cc1cccc(Cl)c1F)[C@H](O)CN[C@H]1CC2(CCC2)Oc2ncc(CC(C)(C)C)cc21 [compound 868] | 
 | 56.3 | CC(=O)N[C@@H](Cc1ccc(F)c(F)c1F)[C@H](O)CN[C@H]1CC2(CCC2)Oc2ncc(CC(C)(C)C)cc21 [compound 814] | 
 | 197 | CC(=O)N[C@@H](Cc1ccccc1Br)[C@H](O)CN[C@H]1CC2(CCC2)Oc2ncc(CC(C)(C)C)cc21 [compound 810] | 
 | 41.2 | CC(=O)N[C@@H](Cc1cc(F)cc(F)c1)[C@H](O)CN[C@H]1CC2(CCC2)Oc2ccc(-n3cccn3)cc21 [compound 777] | 
 | 78.4 | CC(=O)N[C@@H](Cc1ccc(Cl)cc1)[C@H](O)CN[C@H]1CC2(CCC2)Oc2ncc(CC(C)(C)F)cc21 [compound 828] | 
 | 2.32 | CC(=O)N[C@@H](Cc1cccnc1)[C@H](O)CN[C@H]1CC2(CCC2)Oc2ncc(CC(C)(C)C)cc21 [compound 824, N-((1S,2R)-3-(((4′S)-6′-(2,2-dimethylpropyl)-3′,4′-dihydrospiro[cyclobutane-1,2′-pyrano[2,3-b]pyridin]-4′-yl)amino)-2-hydroxy-1-(3-pyridinylmethyl)propyl)acetamide] | 
 | 15.8 | CC(=O)N[C@@H](Cc1ccc(F)cc1)[C@H](O)CN[C@H]1CC2(CC(C)C2)Oc2ncc(CC(C)(C)C)cc21 (stereo partly drawn) [compound 766, N-((1S,2R)-3-(((4′S)-6′-(2,2-dimethylpropyl)-3-methyl-3′,4′-dihydrospiro[cyclobutane-1,2′-pyrano[2,3-b]pyridin]-4′-yl)amino)-1-((4-fluorophenyl)methyl)-2-hydroxypropyl)acetamide] | 
 | 1.26 | CC(=O)N[C@@H](Cc1cccc(C#N)c1)[C@H](O)CN[C@H]1CC2(CCC2)Oc2ncc(CC(C)C)cc21 [compound 849] | 
